One data set relates to Enterococcus faecalis. Put plainly: MIC against ribosome-based resistance phenotypes. The data set is classed as cell-based. Particulars: ATCC29212, Enterococcus faecalis ATCC29212-P5, Lin-R (G2576U), read-out: Minimum Inhibitory Concentration (MIC). The source says:
(§1) Furthermore, the antibiotic compounds can be assayed for anti-proliferative or anti-infective properties on a cellular level. For example, where the target organism is a microorganism, the activity of compounds of interest can be assayed by growing the microorganisms of interest in media either containing or lacking the compound. Growth inhibition can be indicative that the molecule could be acting as a protein synthesis inhibitor. […] For this purpose, a panel of bacterial strains can be assembled to include a variety of target pathogenic species, some containing resistance mechanisms that have been characterized. Use of such a panel of organisms permits the determination of structure-activity relationships not only in regards to potency and spectrum, but also with a view to obviating resistance mechanisms.

In a further data set the test system is Staphylococcus aureus. Put plainly: MIC against ribosome-based resistance phenotypes. The data set is classed as cell-based. The note with it: Staphylococcus aureus A7820, Lin-R (G2576U) + Mac-R (ErmC), read-out: Minimum Inhibitory Concentration (MIC).
Excerpt: as §1

For data set [1], the system named is P. granulosum. Put plainly: Broth microdilution MIC. The data set is classed as cell-based. The note with it: P. granulosum ATCC 25746.
Data set [2] has as its system F. magna. Nature of the data set: Broth microdilution MIC. In kind it is cell-based. Particulars: Finegoldia magna, ATCC15794; F. magna ATCC 15794. On the technique in general: Broth dilution looks for growth in wells or tubes with falling amounts of substance.
For another data set, the system named is B. fragilis. Put plainly: Broth microdilution MIC. In kind it is cell-based. Particulars: Bacteroides fragilis, ATCC25285; B. fragilis ATCC 25285.
The next data set deals with Enterococcus faecium. Put plainly: MIC against ribosome-based resistance phenotypes. In kind it is cell-based. Particulars: Enterococcus faecium A6349; VanA + Lin-R (G2576U); read-out: Minimum Inhibitory Concentration (MIC).
Excerpt: as §1, with “mechanisms. The assays can be performed in microtiter trays according to conventional methodologies as published by The National Committee for Clinical Laboratory Standards (NCCLS) guidelines (NCCLS. M7-A5-Methods for Dilution Antimicrobial Susceptibility Tests for Bacteria That Grow Aerobically; Approved Standard-Fifth Edition. NCCLS Document M100-S12/M7 (ISBN 1-56238-394-9)).” for “mechanisms.”

For data set [3], the system named is F. magna. Put plainly: Agar dilution MIC (CLSI reference method). The data set is classed as cell-based. The note with it: Finegoldia magna, ATCC15794; F. magna ATCC 15794. For orientation: In agar dilution, organisms are placed on agar that contains the substance at set levels.
For data set [4], the system named is G. vaginalis. Put plainly: Broth microdilution MIC. The note with it: Gardnerella vaginalis. The data set is classed as cell-based.
The nature of data set [5]: Long-term rat safety study. In kind it is in vivo. Particulars: rat, in vivo, 100 mg/kg/day. The source says: There was 100% survival in all dose groups.
A further data set has as its system P. acnes. Put plainly: Agar dilution MIC (CLSI reference method). The data set is classed as cell-based. The note with it: Cutibacterium acnes.
In another data set the test system is S. aureus. Put plainly: Agar dilution MIC (CLSI reference method). In kind it is cell-based. The note with it: Staphylococcus aureus, ATCC29213; S. aureus ATCC 29213. As for the experimental part: Susceptibility testing was performed by the agar dilution reference method (radezolid, linezolid, and clindamycin) and broth microdilution method (all agents) as described by the Clinical and Laboratory Standards Institute (CLSI).
For the agar dilution method, Brucella agar (BBL, 211086) was prepared according to the manufacturer's instructions and cooled to 48-50° C. in a water bath. Once the agar was cooled, it was supplemented with 10 mL of hemin+vitamin K1 Solution (Remel, R450951), 1 mL of 1 mg/mL vitamin K1 working solution (Sigma, V3501), and 50 mL laked sheep blood (Remel, R54004). The media was dispensed into 50 mL centrifuge tubes and held at 48-50° C. […] The diluted antimicrobial agents were added to the dispensed media, gently mixed, and poured into sterile petri dishes. Once hardened, the plates were held in anaerobic jars at room temperature and used the following day. […]
On the day of testing, a 0.5 McFarland equivalent of each isolate was prepared in Brucella broth with hemin+vitamin K1. […] BRU plates and those containing compound were incubated at 35° C. in an anaerobic environment for 24 hours, read, and re-incubated for an additional 24 hours followed by a final reading. […] Following incubation, MICs were determined as the lowest concentration showing a marked reduction in growth or no growth compared to the growth control plate.

The subject of data set [6] is P. granulosum. Nature of the data set: Agar dilution MIC (CLSI reference method). In kind it is cell-based. Particulars: P. granulosum ATCC 25746.
The subject of data set [7] is G. vaginalis. Put plainly: Agar dilution MIC (CLSI reference method). In kind it is cell-based. Particulars: Gardnerella vaginalis.
Where [8] appears, read: ATCC14018, G. vaginalis ATCC 14018.
Where [9] appears, read: ATCC49145, G. vaginalis ATCC 49145.

SMILES strings stand for the structures. Values after ≈ are worked out from the molar mass of the structure shown.

For `CC(=O)NC[C@H]1CN(c2ccc(N3CCOCC3)c(F)c2)C(=O)O1` [Linezolid, linezolid], the MIC was 32 mg/L (≈ 94.9 µM) with Enterococcus faecalis; 64 mg/L with Staphylococcus aureus; 1 mg/L (≈ 2.96 µM) in the data set on P. granulosum [1]; 1 mg/L (≈ 2.96 µM) against F. magna [2]; 2 mg/L (≈ 5.93 µM) against B. fragilis; 16 mg/L in the data set on Enterococcus faecium. Moreover, the MIC in the data set on F. magna [3] amounted to 2 mg/L (≈ 5.93 µM); in the data set with G. vaginalis [4] (setting [8]) it was 0.5 mg/L (≈ 1.48 µM); in the data set with G. vaginalis [4] (setting [9]), 0.5 mg/L (≈ 1.48 µM); against P. acnes (ATCC11827, P. acnes ATCC 11827) it was 0.5 mg/L (≈ 1.48 µM); in the data set with P. acnes (ATCC11828, P. acnes ATCC 11828), 0.5 mg/L (≈ 1.48 µM); in the data set with P. acnes (ATCC29399, P. acnes ATCC 29399) it was 0.5 mg/L (≈ 1.48 µM). The MIC in the data set with S. aureus turned out to be 2 mg/L (≈ 5.93 µM); with P. granulosum [6] it was 2 mg/L (≈ 5.93 µM); in the data set with G. vaginalis [7] (setting [8]), 0.5 mg/L (≈ 1.48 µM); in the data set on G. vaginalis [7] (setting [9]), 0.5 mg/L (≈ 1.48 µM). In [5], the “cellularity of sternal and femoral bone marrow” value is “decreased cellularity of sternal and femoral bone marrow”. Further, the “red cell mass, absolute reticulocyte and neutrophil counts” value in data set [5] is “decreased red cell mass, absolute reticulocyte and neutrophil counts”.

Values taken from patent US10471046B2, “Method for treating, preventing, or reducing the risk of skin infection” (Melinta Subsidiary Corp., priority 2014, dated 2019).
